Reference: publication PMC3008316 (Antiviral research, 2009)
Read-outs that look alike come from different tables or passages of the source.

Columns and labels:
[1] = tested on: RVFV vaccine strain MP-12; experiment: microbe, parasite or virus in culture; conditions: Rift Valley fever virus, Vero 76, read-out: EC50 ± SD (CPER)
[2] = tested on: Sandfly fever virus, Naples strain (SFNV); experiment: microbe, parasite or virus in culture; conditions: sandfly fever Sicilian virus, Vero 76, read-out: EC50 ± SD (CPER)
[3] = tested on: Junin virus (JUNV) vaccine strain Candid 1
PICV, strain An 4763 [4] = tested on: PICV, strain An 4763
[5] = tested on: RVFV vaccine strain MP-12
[6] = tested on: Junin virus (JUNV) vaccine strain Candid 1; remark: listed apart in the source
in vitro [7] = conditions: monkey, CC50 ± SD
[8] = tested on: RVFV vaccine strain MP-12; experiment: microbe, parasite or virus in culture; conditions: Rift Valley fever virus, Vero 76, read-out: EC90 ± SD (VYR)
[9] = tested on: Tacaribe virus (TCRV), strain TRVL 11573; experiment: microbe, parasite or virus in culture; conditions: Mammarenavirus tacaribeense, Vero 76, read-out: EC50 ± SD (CPER)
[10] = tested on: Sandfly fever virus, Naples strain (SFNV); experiment: microbe, parasite or virus in culture; conditions: sandfly fever Sicilian virus, Vero 76, read-out: EC90 ± SD (VYR)
PTV, Adames strain [11] = tested on: PTV, Adames strain; design: species or system Syrian hamsters; conditions: hamster, in vivo
in vitro [12] = conditions: monkey, CC50 ± SD; remark: listed apart in the source
PICV, strain An 4763 [13] = tested on: PICV, strain An 4763; remark: listed apart in the source
[14] = tested on: Sandfly fever virus, Naples strain (SFNV)
[15] = tested on: Tacaribe virus (TCRV), strain TRVL 11573
PICV, strain An 4763 [16] = experiment: microbe, parasite or virus in culture; conditions: Pichinde virus, Vero, read-out: EC90 ± SD (VYR)
[17] = tested on: Sandfly fever virus, Naples strain (SFNV); remark: listed apart in the source
[18] = tested on: Junin virus (JUNV) vaccine strain Candid 1; experiment: microbe, parasite or virus in culture; conditions: Mammarenavirus juninense, Vero, read-out: EC90 ± SD (VYR)
PTV, Adames strain [19] = tested on: PTV, Adames strain
[20] = tested on: Tacaribe virus (TCRV), strain TRVL 11573; remark: listed apart in the source
PICV, strain An 4763 [21] = type: in vivo, Syrian hamsters
[22] = tested on: Tacaribe virus (TCRV), strain TRVL 11573; experiment: microbe, parasite or virus in culture; conditions: Mammarenavirus tacaribeense, Vero 76, read-out: EC90 ± SD (VYR)
PICV, strain An 4763 [23] = experiment: microbe, parasite or virus in culture; conditions: Pichinde virus, Vero, read-out: EC50 ± SD (CPER)
PTV, Adames strain [24] = experiment: microbe, parasite or virus in culture; conditions: Punta Toro virus, Vero 76, read-out: EC90 ± SD (VYR)
[25] = tested on: Junin virus (JUNV) vaccine strain Candid 1; experiment: microbe, parasite or virus in culture; conditions: Mammarenavirus juninense, Vero, read-out: EC50 ± SD (CPER)
[26] = tested on: phleboviruses (RVFV, PTV, SFNV); experiment: organism not typed; type: cell-based
[27] = rats; ref Y. Furuta, unpublished data; cited from earlier work
PTV, Adames strain [28] = experiment: microbe, parasite or virus in culture; conditions: Punta Toro virus, Vero 76, read-out: EC50 ± SD (CPER)
PTV, Adames strain [29] = tested on: PTV, Adames strain; remark: listed apart in the source
PTV, Adames strain [30] = tested on: PTV, Adames strain; design: species or system C57BL/6 mice; conditions: mouse, in vivo
[31] = tested on: RVFV vaccine strain MP-12; remark: listed apart in the source
[32] = hamster, in vivo, po, 25 mg/kg/day
[33] = hamster, in vivo, po, 50 mg/kg/day
[34] = hamster, in vivo, po, 100 mg/kg/day

SMILES: NC(=O)c1nccn([C@@H]2O[C@H](CO)[C@@H](O)[C@H]2O)c1=O [T-1106, 3,4-dihydro-3-oxo-4-β-D-ribofuranosyl-2-pyrazinecarboxamide]
- EC50 [1]: 111 ± 58 µM
- EC50 [2]: 152 ± 13 µM
- SI (CC50/EC90) [3]: >33
- SI (CC50/EC50) (PICV, strain An 4763 [4]): >24
- SI (CC50/EC50) [5]: >33
- SI (CC50/EC50) [6]: >29
- CC50 (in vitro [7]): > 3720 µM
- EC90 [8]: 146 ± 129 µM
- EC50 [9]: 619 ± 205 µM
- EC90 [10]: 76 ± 15 µM
- ED50 (survival) (PTV, Adames strain [11]): 12 µmol/kg/day
- Mean virus titer ± SD, liver (PTV, Adames strain [11]): < 4.3 ± 2.1 (40)
- Potency relative to T-705 based on ED50 (PTV, Adames strain [11]): 9.4 times
- Survival compared to placebo (PTV, Adames strain [11]): Significant protection
- ALT ± SD (PTV, Adames strain [11]; po, 25 mg/kg/day): 251 ± 438 international units per liter
- Mean virus titer ± SD, liver (PTV, Adames strain [11]; po, 25 mg/kg/day): < 4.6 ± 1.7 (80)
- Mean virus titer ± SD, serum (PTV, Adames strain [11]; po, 25 mg/kg/day): < 4.8 ± 2.9 (60)
- Percentage of animals with detectable virus, liver (PTV, Adames strain [11]; po, 25 mg/kg/day): < 4.6 ± 1.7 (80) %
- Percentage of animals with detectable virus, serum (PTV, Adames strain [11]; po, 25 mg/kg/day): < 4.8 ± 2.9 (60) %
- ALT ± SD (PTV, Adames strain [11]; po, 50 mg/kg/day): 802 ± 1149 international units per liter
- Mean virus titer ± SD, liver (PTV, Adames strain [11]; po, 50 mg/kg/day): < 4.9 ± 1.5 (80)
- Mean virus titer ± SD, serum (PTV, Adames strain [11]; po, 50 mg/kg/day): < 3.9 ± 2.2 (40)
- Percentage of animals with detectable virus, liver (PTV, Adames strain [11]; po, 50 mg/kg/day): < 4.9 ± 1.5 (80) %
- Percentage of animals with detectable virus, serum (PTV, Adames strain [11]; po, 50 mg/kg/day): < 3.9 ± 2.2 (40) %
- ALT ± SD (PTV, Adames strain [11]; po, 100 mg/kg/day): 446 ± 959 international units per liter
- Mean virus titer ± SD, serum (PTV, Adames strain [11]; po, 100 mg/kg/day): < 3.6 ± 2.6 (40)
- Percentage of animals with detectable virus, liver (PTV, Adames strain [11]; po, 100 mg/kg/day): < 4.3 ± 2.1 (40) %
- Percentage of animals with detectable virus, serum (PTV, Adames strain [11]; po, 100 mg/kg/day): < 3.6 ± 2.6 (40) %
- CC50 (in vitro [12]): > 3720 µM
- SI (CC50/EC90) (PICV, strain An 4763 [13]): >21
- SI (CC50/EC90) [14]: >49
- SI (CC50/EC50) [15]: >6
- EC90 (PICV, strain An 4763 [16]): 173 ± 93 µM
- SI (CC50/EC50) [17]: >24
- EC90 [18]: 114 ± 28 µM
- SI (CC50/EC50) (PTV, Adames strain [19]): >5
- SI (CC50/EC90) [20]: >13
- Survival compared to placebo, log-rank analysis (PICV, strain An 4763 [21]; hamster, in vivo, 100 mg/kg/day): failed to significantly protect
- ED50 (survival) (PICV, strain An 4763 [21]; hamster, in vivo, po): 441 µmol/kg/day
- ALT ± SD (PICV, strain An 4763 [21]; [32]): 1354 ± 961 international units per liter
- Mean virus titer ± SD, liver (PICV, strain An 4763 [21]; [32]): 7.7 ± 0.6 (100)
- Mean virus titer ± SD, serum (PICV, strain An 4763 [21]; [32]): 6.5 ± 1.1 (100)
- Percentage of animals with detectable virus, liver (PICV, strain An 4763 [21]; [32]): 7.7 ± 0.6 (100) %
- Percentage of animals with detectable virus, serum (PICV, strain An 4763 [21]; [32]): 6.5 ± 1.1 (100) %
- Mean virus titer ± SD, liver (PICV, strain An 4763 [21]; [33]): 7.1 ± 1.5 (100)
- Mean virus titer ± SD, serum (PICV, strain An 4763 [21]; [33]): < 5.4 ± 2.1 (80)
- Percentage of animals with detectable virus, liver (PICV, strain An 4763 [21]; [33]): 7.1 ± 1.5 (100) %
- Percentage of animals with detectable virus, serum (PICV, strain An 4763 [21]; [33]): < 5.4 ± 2.1 (80) %
- ALT ± SD (PICV, strain An 4763 [21]; [34]): 961 ± 1071 international units per liter
- Mean virus titer ± SD, liver (PICV, strain An 4763 [21]; [34]): 7.4 ± 0.4 (100)
- Mean virus titer ± SD, serum (PICV, strain An 4763 [21]; [34]): 6.5 ± 1.0 (100)
- Percentage of animals with detectable virus, liver (PICV, strain An 4763 [21]; [34]): 7.4 ± 0.4 (100) %
- Percentage of animals with detectable virus, serum (PICV, strain An 4763 [21]; [34]): 6.5 ± 1.0 (100) %
- Survival outcome (PICV, strain An 4763 [21]; n=10): 4 of the 10
- Animals protected (survival) (PICV, strain An 4763 [21]; n=10, 25 mg/kg/day): 20%
- Animals protected (survival) (PICV, strain An 4763 [21]; n=10, 50 mg/kg/day): 40%
- EC90 [22]: 296 ± 273 µM
- EC50 (PICV, strain An 4763 [23]): 154 ± 39 µM
- EC90 (PTV, Adames strain [24]): 576 ± 450 µM
- EC50 [25]: 128 ± 44 µM
- Greater sensitivity of RVFV to inhibitory activity [26]: ~ 5 times
- Inhibitory concentrations, range [26]: 76 to 743 µM
- EC50 ([26]; read-out: EC50 values, range (CPE reduction assay)): 111 to 743 µM
- EC90 ([26]; read-out: EC90 values, range (VYR)): 76 to 576 µM
- Liver tissue:plasma ratio relative to T-705 [27]: ~ 50 fold
- EC50 (PTV, Adames strain [28]): 743 ± 297 µM
- SI (CC50/EC90) (PTV, Adames strain [29]): >6
- ED50 (survival) (PTV, Adames strain [30]): 201 µmol/kg/day
- SI (CC50/EC90) [31]: >25
